# Tested on: bEnd.3 cells
# Assay: SSP4 fluorescence photomicrographs of bEnd.3 cells with or without AP39 and PEG-OAC
# Type: cell-based
# Conditions: PEG-OACs 4 mg/L
structure (smiles),measurement,value
O=C(CCCCCCCCC[P+](c1ccccc1)(c1ccccc1)c1ccccc1)Oc1ccc(-c2cc(=S)ss2)cc1.[Br-] [AP39],"SSP4 fluorescence, agent alone relative to control",increases the fluorescence signal

# From patent US20230241245A1, “Therapeutic Carbon Nanomaterial H2S Oxidants for Biological Polysulfide Synthesis” (The Texas A&M University System, priority 2020, published 2023)
